{
  "source": "paper PMC6289772",
  "about": "(Cancer, 2018)",
  "key": {"[1]": {"assay": "Axitinib plasma pharmacokinetics, phase 1 trial", "format": "in vivo"}, "[2]": {"assay": "Toxicity / dose-limiting toxicity evaluation, phase 1 trial", "format": "in vivo"}, "[3]": {"tested_on": "recurrent or refractory solid tumors", "assay": "Tumor response assessment", "format": "in vivo, human (children and adolescents)"}, "[4]": {"format": "in vivo, human (children and adolescents)"}, "[5]": {"details": "cited from earlier work"}, "[6]": {"details": "median (range), Dose Level 2.4 mg/m^2, Day 1 (n=12)"}, "[7]": {"details": "median (range), Dose Level 3.2 mg/m^2, Day 1 (n=6)"}},
  "data": [
    {"compound": "CNC(=O)c1ccccc1Sc1ccc2c(/C=C/c3ccccn3)n[nH]c2c1", "note": "[Axitinib]", "values": [
      {"measurement": "median oral clearance CL/F", "setting": "[1]; Day 1, children <12 years", "result": 28.6, "unit": "L/h/m^2"},
      {"measurement": "median oral clearance CL/F", "setting": "[1]; Day 1, children ≥12 years", "result": 19.7, "unit": "L/h/m^2"},
      {"measurement": "median oral clearance CL/F", "setting": "[1]; Day 1, females", "result": 19.7, "unit": "L/h/m^2"},
      {"measurement": "median oral clearance CL/F", "setting": "[1]; Day 1, males", "result": 24.2, "unit": "L/h/m^2"},
      {"measurement": "half-life", "setting": "[1]; human, plasma, oral", "result": 144, "unit": "min"},
      {"measurement": "AUC(0-t)", "setting": "[1]; human, plasma, oral, 2.4 mg/m2, AUC0–8h, median (range), Dose Level 2.4 mg/m^2, Day 1 (n=12)", "result": 91, "unit": "ng·h/mL"},
      {"measurement": "AUC(0-t)", "setting": "[1]; human, plasma, oral, 2.4 mg/m2, AUC0–8h, median (range), Dose Level 2.4 mg/m^2, Day 8 (n=12)", "result": 147, "unit": "ng·h/mL"},
      {"measurement": "Cmax", "setting": "[1]; human, plasma, oral, 2.4 mg/m2, Cmax, median (range), Dose Level 2.4 mg/m^2, Day 1 (n=12)", "result": 23.8, "unit": "ng/mL"},
      {"measurement": "Cmax", "setting": "[1]; human, plasma, oral, 2.4 mg/m2, Cmax, median (range), Dose Level 2.4 mg/m^2, Day 8 (n=12)", "result": 47.4, "unit": "ng/mL"},
      {"measurement": "half-life", "setting": "[1]; human, plasma, oral, 2.4 mg/m2, Half life, median (range), Dose Level 2.4 mg/m^2, Day 1 (n=12)", "result": 132, "unit": "min"},
      {"measurement": "half-life", "setting": "[1]; human, plasma, oral, 2.4 mg/m2, Half life, median (range), Dose Level 2.4 mg/m^2, Day 8 (n=12)", "result": 150, "unit": "min"},
      {"measurement": "Tmax", "setting": "[1]; human, plasma, oral, 2.4 mg/m2, Tmax, median (range), Dose Level 2.4 mg/m^2, Day 1 (n=12)", "result": 2, "unit": "h"},
      {"measurement": "Tmax", "setting": "[1]; human, plasma, oral, 2.4 mg/m2, Tmax, median (range), Dose Level 2.4 mg/m^2, Day 8 (n=12)", "result": 1.5, "unit": "h"},
      {"measurement": "AUC(0-t)", "setting": "[1]; human, plasma, oral, 3.2 mg/m2, AUC0–8h, median (range), Dose Level 3.2 mg/m^2, Day 1 (n=6)", "result": 134, "unit": "ng·h/mL"},
      {"measurement": "AUC(0-t)", "setting": "[1]; human, plasma, oral, 3.2 mg/m2, AUC0–8h, median (range), Dose Level 3.2 mg/m^2, Day 8 (n=5)", "result": 140, "unit": "ng·h/mL"},
      {"measurement": "Cmax", "setting": "[1]; human, plasma, oral, 3.2 mg/m2, Cmax, median (range), Dose Level 3.2 mg/m^2, Day 1 (n=6)", "result": 38, "unit": "ng/mL"},
      {"measurement": "half-life", "setting": "[1]; human, plasma, oral, 3.2 mg/m2, Half life, median (range), Dose Level 3.2 mg/m^2, Day 1 (n=6)", "result": 156, "unit": "min"},
      {"measurement": "half-life", "setting": "[1]; human, plasma, oral, 3.2 mg/m2, Half life, median (range), Dose Level 3.2 mg/m^2, Day 8 (n=5)", "result": 108, "unit": "min"},
      {"measurement": "Tmax", "setting": "[1]; human, plasma, oral, 3.2 mg/m2, Tmax, median (range), Dose Level 3.2 mg/m^2, Day 1 (n=6)", "result": 2, "unit": "h"},
      {"measurement": "Tmax", "setting": "[1]; human, plasma, oral, 3.2 mg/m2, Tmax, median (range), Dose Level 3.2 mg/m^2, Day 8 (n=5)", "result": 2, "unit": "h"},
      {"measurement": "half-life", "setting": "[1]; human, plasma, oral, half-life (range), all patients", "result": "42 to 312", "unit": "min"},
      {"measurement": "half-life", "setting": "[1]; human, plasma, oral, median half-life, Day 8, all patients", "result": 150, "unit": "min"},
      {"measurement": "accumulation ratio (day 8 AUC0–8h versus day 1 AUC0–8h)", "setting": "[1]; median (range), all patients", "result": "1.8 (0.3 – 4.7)"},
      {"measurement": "Cl/F", "setting": "[1]; [6]", "result": "28.0 (9.8–230.1) L/h"},
      {"measurement": "Cl/m^2", "setting": "[1]; [6]", "result": "21.4 (6.0–230.1) L/h/m^2"},
      {"measurement": "V/F", "setting": "[1]; [6]", "result": "74.9 (43.6–888.7) L"},
      {"measurement": "V/m^2", "setting": "[1]; [6]", "result": "67.4 (39.1–888.7) L/m^2"},
      {"measurement": "Cl/F", "setting": "[1]; [7]", "result": "32.6 (14.2–65.2) L/h"},
      {"measurement": "Cl/m^2", "setting": "[1]; [7]", "result": "19.9 (11.4–61.5) L/h/m^2"},
      {"measurement": "V/F", "setting": "[1]; [7]", "result": "99.4 (48.9–150.6) L"},
      {"measurement": "V/m^2", "setting": "[1]; [7]", "result": "65.5 (39.1–101.6) L/m^2"},
      {"measurement": "Cmax", "setting": "[1]; median (range), Dose Level 3.2 mg/m^2, Day 8 (n=5)", "result": "41.5 (15.5–76.5) ng/mL"},
      {"measurement": "Abdominal pain, Grade 2", "setting": "[2]; human, in vivo", "result": 1},
      {"measurement": "Alanine aminotransferase increased, Grade 2", "setting": "[2]; human, in vivo", "result": 1},
      {"measurement": "Anemia, Grade 1", "setting": "[2]; human, in vivo", "result": 1},
      {"measurement": "Anorexia, Grade 1", "setting": "[2]; human, in vivo", "result": 1},
      {"measurement": "Fatigue, Grade 1", "setting": "[2]; human, in vivo", "result": 3},
      {"measurement": "Fatigue, Grade 2", "setting": "[2]; human, in vivo", "result": 1},
      {"measurement": "Headache, Grade 2", "setting": "[2]; human, in vivo", "result": 1},
      {"measurement": "Hemoglobin increased, Grade 1", "setting": "[2]; human, in vivo", "result": 1},
      {"measurement": "Hemoglobin increased, Grade 2", "setting": "[2]; human, in vivo", "result": 2},
      {"measurement": "Hemoglobin increased, Grade 3", "setting": "[2]; human, in vivo", "result": 1},
      {"measurement": "Hypertension, Grade 2", "setting": "[2]; human, in vivo", "result": 3},
      {"measurement": "Hypertension, Grade 3", "setting": "[2]; human, in vivo", "result": 1},
      {"measurement": "Hypophosphatemia, Grade 1", "setting": "[2]; human, in vivo", "result": 1},
      {"measurement": "Hypothyroidism, Grade 2", "setting": "[2]; human, in vivo", "result": 2},
      {"measurement": "Leukopenia, Grade 1", "setting": "[2]; human, in vivo", "result": 1},
      {"measurement": "Lipase increased, Grade 2", "setting": "[2]; human, in vivo", "result": 2},
      {"measurement": "Lipase increased, Grade 3", "setting": "[2]; human, in vivo", "result": 1},
      {"measurement": "Lymphopenia, Grade 1", "setting": "[2]; human, in vivo", "result": 1},
      {"measurement": "Nausea, Grade 1", "setting": "[2]; human, in vivo", "result": 1},
      {"measurement": "Nausea, Grade 2", "setting": "[2]; human, in vivo", "result": 2},
      {"measurement": "Neutropenia, Grade 2", "setting": "[2]; human, in vivo", "result": 2},
      {"measurement": "Palmar-plantar erythrodysesthesia syndrome, Grade 1", "setting": "[2]; human, in vivo", "result": 1},
      {"measurement": "Palmar-plantar erythrodysesthesia syndrome, Grade 2", "setting": "[2]; human, in vivo", "result": 1},
      {"measurement": "Proteinuria, Grade 1", "setting": "[2]; human, in vivo", "result": 2},
      {"measurement": "Proteinuria, Grade 2", "setting": "[2]; human, in vivo", "result": 1},
      {"measurement": "Vomiting, Grade 1", "setting": "[2]; human, in vivo", "result": 1},
      {"measurement": "Anemia, Grade 1", "setting": "[2]; human, in vivo, 1 cycle", "result": 3},
      {"measurement": "Anemia, Grade 2", "setting": "[2]; human, in vivo, 1 cycle", "result": 2},
      {"measurement": "Hemoglobin increased, Grade 1", "setting": "[2]; human, in vivo, 1 cycle", "result": 3},
      {"measurement": "Hypertension, Grade 2", "setting": "[2]; human, in vivo, 1 cycle", "result": 4},
      {"measurement": "Hypophosphatemia, Grade 1", "setting": "[2]; human, in vivo, 1 cycle", "result": 2},
      {"measurement": "Hypothyroidism, Grade 1", "setting": "[2]; human, in vivo, 1 cycle", "result": 1},
      {"measurement": "Hypothyroidism, Grade 2", "setting": "[2]; human, in vivo, 1 cycle", "result": 2},
      {"measurement": "Leukopenia, Grade 1", "setting": "[2]; human, in vivo, 1 cycle", "result": 1},
      {"measurement": "Lipase increased, Grade 1", "setting": "[2]; human, in vivo, 1 cycle", "result": 1},
      {"measurement": "Lipase increased, Grade 2", "setting": "[2]; human, in vivo, 1 cycle", "result": 1},
      {"measurement": "Lymphopenia, Grade 1", "setting": "[2]; human, in vivo, 1 cycle", "result": 1},
      {"measurement": "Lymphopenia, Grade 2", "setting": "[2]; human, in vivo, 1 cycle", "result": 1},
      {"measurement": "Neutropenia, Grade 2", "setting": "[2]; human, in vivo, 1 cycle", "result": 1},
      {"measurement": "Palmar-plantar erythrodysesthesia syndrome, Grade 2", "setting": "[2]; human, in vivo, 1 cycle", "result": 2},
      {"measurement": "Proteinuria, Grade 1", "setting": "[2]; human, in vivo, 1 cycle", "result": 2},
      {"measurement": "Rash acneiform, Grade 1", "setting": "[2]; human, in vivo, 1 cycle", "result": 2},
      {"measurement": "Sore throat, Grade 1", "setting": "[2]; human, in vivo, 1 cycle", "result": 2},
      {"measurement": "Thrombocytopenia, Grade 1", "setting": "[2]; human, in vivo, 1 cycle", "result": 1},
      {"measurement": "Vomiting, Grade 1", "setting": "[2]; human, in vivo, 1 cycle", "result": 3},
      {"measurement": "recommended phase 2 dose (RP2D)", "setting": "[2]; human, in vivo, po, 28 days", "result": 2.4, "unit": "mg/m^2/dose"},
      {"measurement": "DLTs at dose level 1", "setting": "[2]; in vivo", "result": "No DLTs"},
      {"measurement": "growth plate abnormalities (tibia radiograph)", "setting": "[2]; in vivo", "result": "No growth plate abnormalities were observed"},
      {"measurement": "number of grade 3 toxicities (non-dose limiting)", "setting": "[2]; in vivo", "result": "three"},
      {"measurement": "maximum tolerated and recommended dose", "setting": "[2]; orally twice daily, continuous 28-day cycles, children with refractory solid tumors", "result": 2.4, "unit": "mg/m^2/dose"},
      {"measurement": "patients with partial response", "setting": "[3]; alveolar soft part sarcoma, 15 patients with reportable response", "result": "One patient"},
      {"measurement": "duration of partial response", "setting": "[3]; patient with alveolar soft part sarcoma, prior to clinical progression", "result": 6, "unit": "months"},
      {"measurement": "trends in AKI biomarkers (KIM-1, NGAL, IL-18) during axitinib therapy", "setting": "[4]; cycle 1 or between dose levels", "result": "no trends were identified"},
      {"measurement": "increase in urine UPC ratio per cycle", "setting": "[4]; during axitinib therapy, not significant (P=0.30)", "result": 4, "unit": "%"},
      {"measurement": "maximum tolerated dose (MTD) in adults", "setting": "[5]; PO BID", "result": 5, "unit": "mg"},
      {"measurement": "median time to onset of grade 1–2 hypertension", "setting": "[5]; adults", "result": 16, "unit": "days"},
      {"measurement": "median time to onset of grade ≥ 3 hypertension", "setting": "[5]; adults", "result": 24, "unit": "days"},
      {"measurement": "patients with discontinuation due to axitinib related hypertension", "setting": "[5]; adults", "result": "< 1", "unit": "%"},
      {"measurement": "patients with dose interruptions due to axitinib related hypertension", "setting": "[5]; adults", "result": 12, "unit": "%"},
      {"measurement": "patients with dose modification due to axitinib related hypertension", "setting": "[5]; adults", "result": 5, "unit": "%"}
    ]}
  ]
}
